Source: patent US20260062445A1, “PEPTIDES WITH CYTOKINE-RELEASING ACTIVITY AND METHODS FOR CHARACTERIZING CYTOKINE-RELEASING PROFILES OF PEPTIDES” (KOLIBER BIOSCIENCES INC., priority 2022, published 2026)

Tested on: expanded naïve CD4+ T cells co-cultured with PBMCs
Test: Expanded CD4 positive T cell assay (cytokine release, ELISA)
Format: cell-based, human
Settings: for response across donors (frequency of responding wells, IL-10 and IFN-γ): three different donors expressing HLA-DRB1*1101, FIGS. 7A-7B
Excerpt: To improve the robustness of the assay and decrease the well-to-well variation, a novel assay system was developed. In effect, by expanding the naïve CD4+ T cells, the number of antigen specific T cells can be increased per well with the goal of detecting a responding well with greater frequency. To expand the naïve CD4+ T cells, the cells are first isolated from PBMCs using negative selection with antibody coated magnetic beads. The naïve CD4+ T cells are then polyclonally expanded using anti-CD3 and anti-CD28 Dynabeads. An expansion of up to 20-fold was observed. The beads were then removed, and the cells were rested for 24 hours. The expanded CD4+ T cells were then co-cultured with PBMCs at a 4:1 ratio and stimulated with peptides twice every 3 days. IL-2 helper cytokine was included. Peptides were utilized at 40 μg/mL. After two peptide stimulations, IL-10 levels in the range of 20-50 picograms […]/mL were observed as compared to 5-10 pg/mL for negative controls (vehicle only) (see FIG. 3C).
PBMCs were isolated from healthy HLA typed donors of different ages, ethnicities, and genders. […] 100 million PBMC were thawed into media (Rosewell Park Memorial Institute (RPMI) 1640 medium, 10% fetal bovine serum (FBS) Heat Inactivated, 1% Penicillin-Streptomycin) and rested at 37° C., 5% CO2 overnight.
Naïve CD4+ T cells are isolated from rested PBMC using the BioLegend MojoSort™ Human CD4 T Cell Isolation Kit. Isolated T cells were counted and cultured at a density of 1×10^6 cells/mL of media with 30 units per milliliter (U/mL) of IL-2. T cells were activated and expanded using ThermoFisher Dynabeads™ Human T-Activator CD3/CD28. Beads were added at a 1:1 bead-to-cell ratio. T cells are incubated at 37° C., 5% CO2 for approximately 1 week, splitting in order to maintain the 1×10^6 cells/mL seeding density and with the addition of fresh media. T cells often saw a 20- to 30-fold expansion.
Expansion beads were magnetically removed from the T cell culture. Remaining T cells were cultured at 1×10^6 cells/mL in media and the IL-2 level was dropped to 10 units/milliliter (U/mL). T cells are rested 24 hours. Meanwhile, another vial of PBMC of the same donor was thawed and similarly rested overnight in media. 1 million expanded T cells and 0.25 million PBMC were cocultured in 1 mL of media containing 10 U/mL IL-2 in 24 well plates. Each well was stimulated with 40 μg of peptide with at least 6 well replicates for each peptide. Sterile water with 10% DMSO was used as a negative control. Plates were incubated at 37° C., 5% CO2 for 3 days. After 3 days, supernatants of each well were collected into Eppendorf tubes and frozen. Cells were resuspended in fresh media containing 10 U/mL IL-2. Cells were restimulated with 40 μg of peptide in the same format. Plates were incubated for another 3 days (see FIG. 2). Supernatants were collected after the second stimulation and cell culture was terminated.
IL-10 and IFN-γ cytokine concentrations were determined for samples. 96-well microwell plates were coated with capture antibody and incubated overnight at 4° C. Frozen supernatants were thawed and assayed using ELISA MAX™ Deluxe kits.
To quantify the number of responding wells for each peptide, a one sample t-test was utilized where signal from each well was compared against the distribution of negative wells from vehicle only controls. The negative distribution was normal (based on Shapiro Wilk test). […] As such, for each peptide, a fraction of responding wells was derived. The fraction of responding wells after the first and second peptide stimulations in the expanded CD4+ T cell assay are shown in FIGS. 5A-5D. Moreover, the fraction of responding wells was further subjected to the statistical test for proportions which takes into account the sample size.

Substance | IFN-γ release (peptide 40 μg/mL, FIGS. 5A-5D) | specificity for IL-10 production vs IFN-γ (three different donors expressing HLA-DRB1*1101) | response across donors (frequency of responding wells, IL-10 and IFN-γ) | IFN-γ signal (upon double stimulation) [pg/mL] | IFN-γ signal (upon single stimulation) [pg/mL]
FAVPAKQAKKTLT [KBP82] | minimal levels | high specificity | respond across donors |  | 
KLAKRLLLSMNQ [KBP63] |  |  | respond across donors |  | 
Keyhole limpet haemocyanin [KLH, reference compound] |  |  |  | 150 | 80
LALLAPKLLRRF [KBP73] |  |  | respond across donors |  | 
